From ChEMBL document CHEMBL6177974, “Synthesis and Pharmacological Characterization of Novel Peripheral Cannabinoid-1 Receptor Blockers Based on a Tricyclic Scaffold” (J Med Chem, 2025)
Values belong to the molecule of their own block, whether it stands above or below them. Calls of active or inactive are those of the source. The rule behind the calls is not given here.

Experiments:
[1] = Stability in SGF at pH 1.2 by HPLC analysis; format: physicochemical; settings: simulated gi fluid
[2] = Stability in SIF at pH 6.8 by HPLC analysis; format: physicochemical; settings: simulated gi fluid
[3] = Protein binding in mouse brain at 1 uM measured after 5 hrs by equilibrium dialysis method; format: ADME, tissue-based
[4] = Mutagenicity in Salmonella typhimurium TA98 incubated for 48 to 72 hrs in presence of liver S9 fraction by mini-Ames test; format: toxicity, subcellular; settings: salmonella enterica subsp. enterica serovar typhimurium, time 48-72 hrs
[5] = Mutagenicity in Salmonella typhimurium TA100 incubated for 48 to 72 hrs in presence of liver S9 fraction by mini-Ames test; format: toxicity, subcellular; settings: salmonella enterica subsp. enterica serovar typhimurium, time 48-72 hrs
[6] = Toxicity in male C57Bl/6J mouse assessed as CNS-mediated hyperactivity at 1 to 10 mg/kg, po; format: organism-based; settings: in vivo, dose 1-10 mg/kg
[7] = Toxicity in male C57Bl/6J mouse assessed as change in locomotor activity at 1 to 10 mg/kg, po; format: organism-based; settings: in vivo, dose 1-10 mg/kg
Mus musculus [8] = experiment: Inhibition of HU-210-induced hypoactivity in male C57Bl/6J mouse at 1 to 10 mg/kg, po; format: functional, organism-based; settings: dose 1-10 mg/kg
Mus musculus [9] = experiment: Anti-obese activity in diet-induced obese male C57Bl/6J mouse model assessed as decrease in body weight at 1 mg/kg/day, po treated for 24 days; format: functional, organism-based; settings: time 24.0 day
Mus musculus [10] = experiment: Anti-obese activity in diet-induced obese male C57Bl/6J mouse model assessed as decrease in total body fat at 1 mg/kg/day, po treated for 24 days by EchoMRI analysis; format: functional, organism-based; settings: time 24.0 day
Mus musculus [11] = experiment: Anti-obese activity in diet-induced obese male C57Bl/6J mouse model assessed as increase in lean body mass at 1 mg/kg/day, po treated for 24 days by EchoMRI analysis; format: functional, organism-based; settings: time 24.0 day
Mus musculus [12] = experiment: Anti-obese activity in diet-induced obese male C57Bl/6J mouse model assessed as reduction in glucose level in fasting condition at 1 mg/kg/day, po treated for 24 days; format: functional, organism-based; settings: time 24.0 day
Mus musculus [13] = experiment: Anti-obese activity in diet-induced obese male C57Bl/6J mouse model assessed as reduction in hypertriglyceridemia at 1 mg/kg/day, po treated for 24 days; format: functional, organism-based; settings: time 24.0 day
Mus musculus [14] = experiment: Anti-obese activity in diet-induced obese male C57Bl/6J mouse model assessed as reduction in hypercholesterolemia at 1 mg/kg/day, po treated for 24 days; format: functional, organism-based; settings: time 24.0 day
Mus musculus [15] = experiment: Anti-obese activity in diet-induced obese male C57Bl/6J mouse model assessed as reversal of hepatic steatosis at 1 mg/kg/day, po treated for 24 days by H and E staining based analysis; format: functional, organism-based; settings: time 24.0 day
Mus musculus [16] = experiment: Anti-obese activity in diet-induced obese male C57Bl/6J mouse model assessed as reversal of hepatocellular damage at 1 mg/kg/day, po treated for 24 days by H and E staining based analysis; format: functional, organism-based; settings: time 24.0 day
Mus musculus [17] = experiment: Anti-obese activity in diet-induced obese male C57Bl/6J mouse model assessed as reduction in liver triglyceride content at 1 mg/kg/day, po treated for 24 days; format: functional, organism-based; settings: time 24.0 day
Mus musculus [18] = experiment: Anti-obese activity in diet-induced obese male C57Bl/6J mouse model assessed as reduction in ALT level at 1 mg/kg/day, po treated for 24 days; format: functional, organism-based; settings: time 24.0 day
Mus musculus [19] = experiment: Anti-obese activity in diet-induced obese male C57Bl/6J mouse model assessed as reduction in AST level at 1 mg/kg/day, po treated for 24 days; format: functional, organism-based; settings: time 24.0 day
Mus musculus [20] = experiment: Anti-obese activity in diet-induced obese male C57Bl/6J mouse model assessed as reduction in ALP level at 1 mg/kg/day, po treated for 24 days; format: functional, organism-based; settings: time 24.0 day
[21] = biological target: Cannabinoid receptor 1 (Mus musculus) (UniProt P47746); experiment: Antagonist activity at CB1R in C57Bl/6Jhsd mouse cortex membrane assessed as inhibition of [35S]GTPgammaS binding incubated for 1 hr by liquid scintillation counter analysis; format: functional, cell membranes; settings: filed as antagonist
[22] = biological target: Cannabinoid receptor 1 (Mus musculus) (UniProt P47746); experiment: Inverse agonist activity at CB1R in C57Bl/6Jhsd mouse cortex membrane assessed as inhibition of [35S]GTPgammaS binding incubated for 1 hr by liquid scintillation counter analysis; format: functional, cell membranes; settings: filed as inverse agonist
Mus musculus [23] = experiment: Inhibition of WIN55212-induced catalepsy in male C57Bl/6J mouse at 10 mg/kg, po; format: functional, organism-based

Sequence of Cannabinoid receptor 1 (Mus musculus) (P47746 whole entry): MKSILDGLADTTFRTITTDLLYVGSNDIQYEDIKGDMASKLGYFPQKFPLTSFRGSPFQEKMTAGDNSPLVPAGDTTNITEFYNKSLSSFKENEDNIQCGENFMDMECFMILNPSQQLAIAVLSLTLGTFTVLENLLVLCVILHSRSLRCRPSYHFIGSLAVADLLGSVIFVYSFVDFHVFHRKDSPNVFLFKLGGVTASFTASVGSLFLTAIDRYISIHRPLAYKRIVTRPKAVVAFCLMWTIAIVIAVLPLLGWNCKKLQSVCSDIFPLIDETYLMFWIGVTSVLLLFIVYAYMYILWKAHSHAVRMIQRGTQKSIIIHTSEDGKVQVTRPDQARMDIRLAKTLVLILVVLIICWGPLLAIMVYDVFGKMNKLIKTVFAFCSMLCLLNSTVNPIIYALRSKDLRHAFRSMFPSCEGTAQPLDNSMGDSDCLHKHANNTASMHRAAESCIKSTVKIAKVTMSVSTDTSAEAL

Stability [1]: Stable | Stability [2]: Stable | PB [3]: Active
Compound: O=S(=O)(N[C@H]1CCCOc2c1nn(-c1ccccc1Cl)c2-c1ccc(Cl)cc1)c1ccc(Cl)cc1
Activity [4]: Non-toxic | Activity [5]: Non-toxic | Activity [6]: Non-toxic | Activity [7]: Non-toxic | inhibition (Mus musculus [8]): inactive | Activity (Mus musculus [9]): Active | Activity (Mus musculus [10]): Active | Activity (Mus musculus [11]): Active | Activity (Mus musculus [12]): Active | Activity (Mus musculus [13]): Active | Activity (Mus musculus [14]): Active | Activity (Mus musculus [15]): Active | Activity (Mus musculus [16]): Active | Activity (Mus musculus [17]): Active | Activity (Mus musculus [18]): Active | Activity (Mus musculus [19]): Active | Activity (Mus musculus [20]): Active | Activity [21]: Active; Compound Exhibited As Neutral Antagonist

Compound: CS(=O)(=O)N[C@H]1CCCOc2c1nn(-c1ccccc1Cl)c2-c1ccc(Cl)cc1
Activity [21]: Active; Compound Exhibited As Neutral Antagonist

Compound: CNC(=O)N[C@H]1CCCOc2c1nn(-c1ccccc1Cl)c2-c1ccc(Cl)cc1
Activity [21]: Active; Compound Exhibited As Neutral Antagonist

Activity [22]: Active
Compound: Cc1ccc(S(=O)(=O)N[C@H]2CCCOc3c2nn(-c2ccccc2Cl)c3-c2ccc(Cl)cc2)cc1

Compound: Cc1c(C(=O)NN2CCCCC2)nn(-c2ccc(Cl)cc2Cl)c1-c1ccc(Cl)cc1
inhibition (Mus musculus [23]): Active
